Like-named read-outs stand apart in the source and are kept apart here.
Legend:
Format in all cases: cell-based
[1] = system: Corynebacterium ammoniagenes ATCC 6872; experiment: Growth of the strain in the presence of pyrimidine analogues; settings: basal agar medium A
[2] = system: Corynebacterium ammoniagenes VKPM B-6307; settings: for Growth of the strains B-6307: basal agar medium A; for Growth of the strain VKPM B-6307 With addition (medium B): medium B (guanine, arginine, casamino acid added)
[3] = system: Corynebacterium ammoniagenes LK 40-2 (VKPM B-7811); experiment: Growth of the strain in the presence of pyrimidine analogues
Experimental: Corynebacterium ammoniagenes VKPM B-6307 was treated with 50 μg/ml of NTG for 20 minutes followed by ampicillin-enrichment procedure for obtaining mutants which could not utilize uridine effectively as a sole carbon source (uridine was added into liquid medium A of Table 2 instead of glucose). The obtained mutant cells were plated on a medium B of Table 2 supplemented with guanine (100 μg/ml), arginine (500 μg/ml), casamino acids (200 μg/ml) and 100 μg/ml of 5-fluorouridine.
The inoculated plates were incubated at 30° C. for 3 days.
The extent of resistance to various pyrimidine analogues of this strain as well as that of the parent strain VKPM B-6307 is shown in Table 4.
(§1) Extent of resistance of this strain to various pyrimidine analogues as well as that of the parent strains LK 40-2 and LK 75-15 is shown in Table 11.

[4] = system: Corynebacterium ammoniagenes LK 75-15 (VKPM B-7812); experiment: as above
Excerpt: as §1

[5] = system: Corynebacterium ammoniagenes LK 75-66 (VKPM B-7813); experiment: as above
Excerpt: as §1

[6] = system: Corynebacterium ammoniagenes LK 75-15 (VKPM B-7812); experiment: as above; remark: listed apart in the source

SMILES: O=c1cc[nH]c(=S)[nH]1 [2-Thiouracil]
- Growth of the strains ATCC6872 ([1]; analogue 500 μg/ml): −
- Growth of the strains ATCC6872 ([1]; analogue 1000 μg/ml): −
- Growth of the strains ATCC6872 ([1]; analogue 3000 μg/ml): −
- Growth of the strains ATCC6872 ([1]; analogue 5000 μg/ml): −
- Growth of the strain B-6307 ([2]; Table 4, analogue 1000 μg/ml): −
- Growth of the strain B-6307 ([2]; Table 8, analogue 1000 μg/ml): −
- Growth of the strains B-6307 ([2]; analogue 500 μg/ml): +
- Growth of the strains B-6307 ([2]; analogue 1000 μg/ml): +
- Growth of the strains B-6307 ([2]; analogue 3000 μg/ml): +
- Growth of the strains B-6307 ([2]; analogue 5000 μg/ml): +
- Growth of the strain LK 40-2 ([3]; Table 4, analogue 1000 μg/ml): +
- Growth of the strain LK 40-2 ([3]; Table 11, analogue 1000 μg/ml): +
- Growth of the Strain LK 75-15 ([4]; Table 11, analogue 1000 μg/ml): +
- Growth of the Strain LK 75-66 ([5]; Table 11, analogue 1000 μg/ml): +
- Growth of the Strain LK 75-15 ([6]; Table 8, analogue 1000 μg/ml): +

SMILES: O=c1[nH]cc(F)c(=O)[nH]1 [5-Fluorouracil]
- Growth of the strains ATCC6872 ([1]; analogue 50 μg/ml): −
- Growth of the strains ATCC6872 ([1]; analogue 100 μg/ml): −
- Growth of the strains ATCC6872 ([1]; analogue 200 μg/ml): −
- Growth of the strains ATCC6872 ([1]; analogue 600 μg/ml): −
- Growth of the strain B-6307 ([2]; Table 4, analogue 100 μg/ml): −
- Growth of the strain B-6307 ([2]; Table 4, analogue 300 μg/ml): −
- Growth of the strain B-6307 ([2]; Table 4, analogue 500 μg/ml): −
- Growth of the strain B-6307 ([2]; Table 4, analogue 1000 μg/ml): −
- Growth of the strain B-6307 ([2]; Table 8, analogue 100 μg/ml): −
- Growth of the strain B-6307 ([2]; Table 8, analogue 300 μg/ml): −
- Growth of the strain B-6307 ([2]; Table 8, analogue 500 μg/ml): −
- Growth of the strain B-6307 ([2]; Table 8, analogue 1000 μg/ml): −
- Growth of the strains B-6307 ([2]; analogue 50 μg/ml): +
- Growth of the strains B-6307 ([2]; analogue 100 μg/ml): +
- Growth of the strain VKPM B-6307 No addition (medium A) ([2]; analogue 100 μg/ml): +
- Growth of the strain VKPM B-6307 With addition (medium B) ([2]; analogue 100 μg/ml): −
- Growth of the strains B-6307 ([2]; analogue 200 μg/ml): +
- Growth of the strain VKPM B-6307 No addition (medium A) ([2]; analogue 200 μg/ml): +
- Growth of the strain VKPM B-6307 With addition (medium B) ([2]; analogue 200 μg/ml): −
- Growth of the strain VKPM B-6307 No addition (medium A) ([2]; analogue 500 μg/ml): +
- Growth of the strain VKPM B-6307 With addition (medium B) ([2]; analogue 500 μg/ml): −
- Growth of the strains B-6307 ([2]; analogue 600 μg/ml): +
- Growth of the strain VKPM B-6307 No addition (medium A) ([2]; analogue 1000 μg/ml): +
- Growth of the strain VKPM B-6307 With addition (medium B) ([2]; analogue 1000 μg/ml): −
- Growth of the strain LK 40-2 ([3]; Table 4, analogue 100 μg/ml): +
- Growth of the strain LK 40-2 ([3]; Table 4, analogue 300 μg/ml): +
- Growth of the strain LK 40-2 ([3]; Table 4, analogue 500 μg/ml): +
- Growth of the strain LK 40-2 ([3]; Table 4, analogue 1000 μg/ml): +
- Growth of the strain LK 40-2 ([3]; Table 11, analogue 100 μg/ml): +
- Growth of the strain LK 40-2 ([3]; Table 11, analogue 300 μg/ml): +
- Growth of the strain LK 40-2 ([3]; Table 11, analogue 500 μg/ml): +
- Growth of the strain LK 40-2 ([3]; Table 11, analogue 1000 μg/ml): +
- Growth of the Strain LK 75-15 ([4]; Table 11, analogue 100 μg/ml): +
- Growth of the Strain LK 75-15 ([4]; Table 11, analogue 300 μg/ml): −
- Growth of the Strain LK 75-15 ([4]; Table 11, analogue 500 μg/ml): −
- Growth of the Strain LK 75-15 ([4]; Table 11, analogue 1000 μg/ml): −
- Growth of the Strain LK 75-66 ([5]; Table 11, analogue 100 μg/ml): +
- Growth of the Strain LK 75-66 ([5]; Table 11, analogue 300 μg/ml): +
- Growth of the Strain LK 75-66 ([5]; Table 11, analogue 500 μg/ml): −
- Growth of the Strain LK 75-66 ([5]; Table 11, analogue 1000 μg/ml): −
- Growth of the Strain LK 75-15 ([6]; Table 8, analogue 100 μg/ml): +
- Growth of the Strain LK 75-15 ([6]; Table 8, analogue 300 μg/ml): −
- Growth of the Strain LK 75-15 ([6]; Table 8, analogue 500 μg/ml): −
- Growth of the Strain LK 75-15 ([6]; Table 8, analogue 1000 μg/ml): −
